Experimental data reported in patent US8889733B2, “Artonin I to treat resistant infectious Staphylococcus aureus” (priority 2013, dated 2014).
Where two headings read alike, the source gives them in different places.

Legend:
Clinical Isolates [1] = experiment: Reversal of Multi-Drug Resistance (MIC/FIC of antibiotics combined with compound 1); format: cell-based, Staphylococcus aureus; settings: for FIC (s): FIC (a) + FIC (b), antibiotic plus Compound 1; for FIC (b): FIC of Compound 1 in combination with the antibiotic named as label; for FIC (a): FIC of the antibiotic = MIC in combination with Compound 1 / MIC alone; for MIC: Staphylococcus aureus
Description: (§1) Assay Protocol: Protocol of Chung et al, (2001), with slight modifications, was followed. 5×10 MDR S. aureus cells were treated with 20 μg/mL of test compounds and incubated for 20 hours. Control cells were not exposed to any test compound and antibiotic. In 96-well plate, increasing concentration of antibiotics, along with the fixed concentration of test compounds were added. Inoculum of 5×10^5 cells was applied to all wells. The presence or absence of growth in all combination wells were noted visually and by using the dye Alamar blue.
(§2) Fractional inhibitory concentrations were calculated by the above cited formulae. • FIC of Antibiotic a (FICa)=MIC of Antibiotic a in combination/MIC of antibiotic a alone • FIC of Compound b (FICb)=MIC of Compound b in combination/MIC of compound b alone
(§3) The sum of Fractional Inhibitory Concentration (FICs) index of: (FICa)+(FICb)=(FICs)

EMRSA-17 [2] = experiment: as above; format: cell-based, Staphylococcus aureus; settings: for FIC (s): FIC (a) + FIC (b), antibiotic plus Compound 1; for FIC (b): FIC of Compound 1 in combination with the antibiotic named as label; for FIC (a): FIC of the antibiotic = MIC in combination with Compound 1 / MIC alone; for MIC: Staphylococcus aureus
Description: as §1, §2, §3

Clinical Isolates [3] = experiment: Lucigenin CL assay of Reactive Oxygen Species (O2-) production; format: cell-based, Staphylococcus aureus; settings: different concentrations, RLU
Description: (§4) Assay Protocol: Protocol of Albesa et al (2002) was followed with slight modifications. 5×10^5 Cells were treated with the different concentrations of test compounds. Cells with compounds were incubated with leueigenin and filtered phosphate buffer saline. DMSO was added to the each well at the time of RLU determination to trigger the reaction. […] Positive control contains DMSO, but not the test compound. Determination by chemiluminescence (CL) was performed at room temperature by luminometer. The light emission results were measured in relative light unit (RLU).

EMRSA-17 [4] = experiment: as above; format: cell-based, Staphylococcus aureus; settings: different concentrations, RLU
Description: as §4

Clinical Isolates [5] = experiment: High throughput screening assay (MABA) against MDR S. aureus; format: cell-based; settings: Staphylococcus aureus, 20 μg/mL, 20 hours, Alamar Blue
Description: (§5) High throughput screening assay (MABA) against MDR S. aureus:
(§6) Inocula Preparation: Isolated colonies of S. aureus were picked and inoculated into Muller Hinton broth and incubated at 37° C. for 20 hours. After 20 hours, the turbidity was checked and adjusted to 0.5 McFarland standards.
(§7) Assay Protocol: Assays were performed according to method reported by Sarkar et al. (2007) with slight modifications. Flat bottom, polystyrene, non-tissue culture treated, sterile 96-well micro titer plates were used with proper labeling. Stock solutions of test compounds 1 and 2 were prepared in DMSO with the concentration of 1 mg/mL. 4 μL from stock solutions were distributed in each well, except the control wells of the plate. Two fold serial dilutions using sterile broth were made with the final volume of […], in each well. The bacterial suspensions (cone 5×10^5) were then added in each wells. The plate was sealed by parafilm and incubated at 37° C. for 20 hours. The plates were prepared in triplicate. Next day, 10% Alamar Blue Dye was added to the culture and kept on shaking incubator at 37° C. for 3 to 4 hours. The color change was then assessed visually, qualitatively and quantitatively by recording absorbance at 570 and 600 nm by a spectrophotometer. The percentage inhibition of compound 1 and 2 against EMRSA-16, and 17, MRSA-252 and clinical isolate by MABA assays are given in Table 1.
(§8) Percentage reduction and inhibition of Alamar blue dye was calculated by using the following formula.
(§9) Here control wells contain only media plus Alamar Blue, while the test wells contains both Alamar Blue with the test compounds.

EMRSA-16 = experiment: as above; format: cell-based; settings: Staphylococcus aureus, 20 μg/mL, 20 hours, Alamar Blue
Description: as §5, §6, §7, §8, §9

EMRSA-17 [6] = experiment: as above; format: cell-based; settings: Staphylococcus aureus, 20 μg/mL, 20 hours, Alamar Blue
Description: as §5, §6, §7, §8, §9

MRSA-252 = experiment: as above; format: cell-based; settings: Staphylococcus aureus, 20 μg/mL, 20 hours, Alamar Blue
Description: as §5, §6, §7, §8, §9

[7] = test system: MDR Efflux Pumps of EMRSA-17; experiment: EtBr accumulation/efflux flow cytometry assay; format: cell-based, Staphylococcus aureus; settings: compound 1 in combination with antibiotics, 3 hrs, FL2
Description: (§10) Assay Protocol: Protocol of Kalle et al, (2009) was employed with some modifications. Control cells were not exposed with any test compound or antibiotic. Combination of test compound and antibiotics were incubated for 3 hrs in test cells. Ethiduim bromide (EtBr) was added in to the Eppendorff, containing the combination of both drugs and compound. Cells with the drugs were also incubated and stained with EtBr. Control and treated samples were centrifuged for 3 min at 13,000 rpm. Supernatant was […] and the pallet was washed with PBS. Positive control contains ethidium bromide, while negative control was EtBr free. Flow cytometric analysis was carried out done by using the FL2 channel.
(§11) Flow cytometry data acquisition: The flow cytometric assay was performed. A total of 50,000 cells were counted by using Cell Quest software (BD) for data acquisition and analysis. EtBr was excited at 488 nm and the fluorescence detected through a 585 nm filter (FL-2 channel).

[8] = test system: MDR Efflux Pumps of clinical isolates; experiment: EtBr accumulation/efflux flow cytometry assay; format: cell-based, Staphylococcus aureus; settings: compound 1 in combination with antibiotics, 3 hrs, FL2
Description: as §10, §11

EMRSA-17 [9] = experiment: Membrane potential and integrity, DiBAC4(3) flow cytometry; format: cell-based, Staphylococcus aureus; settings: 20 μg/mL, 20 hrs, flow cytometry FL1
Description: (§12) Compound Treatment: 5×10^5 MDR S. aureus cells were treated with 20 μg/mL of test compounds and incubated for 20 hours, while the control cells were incubated without test compound.
(§13) Cell Staining: Staining procedure of Jepras et al. (1997) was adapted with slight modifications. Stock solutions (1 mg/mL) for the membrane potential probe DiBAC4(3) were made in absolute ethanol and stored at −20 ° C. […] Samples (1 mL) of exponentially growing S. aureus were taken from broth cultures. Samples were centrifuged at 11,000 rpm for 2 min and the supernatant was discarded. Cell pellets were resuspended in 4 mL of filtered phosphate-buffered saline (PBS). Fluorogenic substrates DiBAC4(3) were added to the cell suspensions to obtain a final concentration of 10 μg/mL. The suspensions were then incubated at 37° C. for 30 min. Cells were washed by centrifugation in the PBS buffer and then analyzed by flow cytometry.
(§14) Flow cytometry data acquisition: The flow cytometric assay was performed on a Becton Dickinson FACSCaliber™ flow cytometer. A total of 50,000 cells were counted by using Cell Quest software (BD) for data acquisition and analysis. The emission maximum of DiBAC4(3) was at 516 nm and its green fluorescence was detected in the channel FL1 (Veal et al., 2000).

clinical isolate = experiment: as above; format: cell-based, Staphylococcus aureus; settings: 20 μg/mL, 20 hrs, flow cytometry FL1
Description: as §12, §13, §14

[10] = antibiotic in combination with Compound 1
[11] = antibiotic alone, read-out: MIC (a)
[12] = antibiotic in combination with Compound 1, listed as clindamycin
[13] = Compound 1 alone, read-out: MIC (b)

Row | Molecule | Effect (Clinical Isolates [1]; [10]) | MIC (a + b) (Clinical Isolates [1]; [10]) [µg/mL] | FIC (s) (EMRSA-17 [2]) | FIC (b) (EMRSA-17 [2]) | MIC (a) (EMRSA-17 [2]; antibiotic alone) [µg/mL] | Effect (EMRSA-17 [2]; [10]) | MIC (a + b) (EMRSA-17 [2]; [10]) [µg/mL] | MIC (Clinical Isolates [1]; [11]) [µg/mL] | MIC (EMRSA-17 [2]; [11]) [µg/mL] | further results
1 | Penicillin | Synergistic | 8 | 0.164 | 0.16 | 2084 | Synergistic | 4 | – | – | FIC (s) (Clinical Isolates [1]): 0.3238; FIC (b) (Clinical Isolates [1]): 0.320; FIC (a) (Clinical Isolates [1]): 0.0038; MIC (a) (Clinical Isolates [1]; antibiotic alone): 2084 µg/mL; FIC (a) (EMRSA-17 [2]): 0.0039
2 | [H]/N=C(/N)N[C@H]1[C@H](O)[C@@H](O)[C@H](O[C@@H]2O[C@@H](C)[C@](O)(C=O)[C@H]2O[C@@H]2O[C@@H](CO)[C@H](O)[C@@H](O)[C@@H]2NC)[C@@H](N/C(N)=N\[H])[C@@H]1O [Streptomycin] | Synergistic | – | 0.647 | 0.64 | – | Partial | 16 | 2050 | 2080 | Effect (EMRSA-17 [2]; antibiotic in combination with Compound 1, listed as streptomycin): partial synergistic effect
3 | CCC[C@@H]1C[C@@H](C(=O)N[C@@H]([C@H]2O[C@H](SC)[C@H](O)[C@@H](O)[C@H]2O)[C@H](C)Cl)N(C)C1 [Clindamicin] | Synergistic | 16 | 0.322 | 0.32 | 4096 | Synergistic | 8 | – | – | MIC (a) (Clinical Isolates [1]; antibiotic alone): 4096 µg/mL; Effect (Clinical Isolates [1]; [12]): partial synergistic activity; MIC (a + b) (Clinical Isolates [1]; [12]): 8 µg/mL; MIC (a) (EMRSA-17 [2]; antibiotic alone, listed as clindamycin): 1024 µg/mL
4 | O=C(O)c1cn(C2CC2)c2cc(N3CCNCC3)c(F)cc2c1=O [Ciprofloxacin] | – | – | 0.164 | 0.16 | – | Synergistic | 4 | – | – | –
5 | Cc1onc(-c2ccccc2)c1C(=O)N[C@@H]1C(=O)N2[C@@H]1SC(C)(C)[C@@H]2C(=O)O [Oxacillin] | Synergistic | – | 0.0809 | 0.08 | – | Synergistic | 2 | 2080 | 4100 | –
6 | O=C(N[C@H](CO)[C@H](O)c1ccc([N+](=O)[O-])cc1)C(Cl)Cl [Chloramphenicol] | Synergistic | 8 | 0.328 | 0.32 | – | Synergistic | 8 | 1020 | 1020 | –
7 | NCC[C@H](O)C(=O)N[C@@H]1C[C@H](N)[C@@H](O[C@H]2O[C@H](CN)[C@@H](O)[C@H](O)[C@H]2O)[C@H](O)[C@H]1O[C@H]1O[C@H](CO)[C@@H](O)[C@H](N)[C@H]1O [Amikacin] | Partial | – | 0.351 | 0.32 | – | Synergistic | 8 | 128 | – | –
8 | Gentamicin | Synergistic | 8 | 0.164 | 0.16 | 512 | Synergistic | 4 | – | – | FIC (s) (Clinical Isolates [1]): 0.3356; FIC (b) (Clinical Isolates [1]): 0.320; FIC (a) (Clinical Isolates [1]): 0.0156; MIC (a) (Clinical Isolates [1]; antibiotic alone): 512 µg/mL; FIC (a) (EMRSA-17 [2]): 0.0039
9 | Neomycin | Synergistic | 8 | 0.336 | 0.32 | 512 | Synergistic | 8 | – | – | FIC (b) (Clinical Isolates [1]): 0.320; FIC (a) (Clinical Isolates [1]): 0.0078; FIC (a) (EMRSA-17 [2]): 0.1562; MIC (a) (EMRSA-17 [2]; antibiotic alone, listed as neomycin): 256 µg/mL
10 | CC(C)=CCc1c(O)ccc(C(=O)[C@@H]2C(c3ccc(O)cc3O)CC(C)=C[C@@H]2c2c(O)cc3oc(-c4ccc(O)cc4O)cc(=O)c3c2O)c1O (stereo partly shown) [Compound 1, artonin I] | – | – | – | – | – | – | – | – | – | production of O2- (ROS), lucigenin chemiluminescence (Clinical Isolates [3]): more production of O2^− was observed; production of O2- (ROS), lucigenin chemiluminescence (EMRSA-17 [4]): more production of O2^− was observed; inhibition at 20 µg/mL (Clinical Isolates [5]): 88.9%; inhibition at 20 µg/mL (EMRSA-16): 88.7%; inhibition at 20 µg/mL (EMRSA-17 [6]): 91.1%; inhibition at 20 µg/mL (MRSA-252): 69.4%; efflux activity, EtBr accumulation [7]: decrease in the efflux activity was observed; efflux activity, EtBr accumulation [8]: decrease in the efflux activity was observed; membrane potential and integrity, DiBAC4(3) fluorescence (EMRSA-17 [9]): majority of population was shifted in a rapid regular pattern due to the change in membrane potential; membrane potential and integrity, DiBAC4(3) fluorescence (clinical isolate): bulky peaks steadily moved towards the area of increasing fluorescence; MIC (Clinical Isolates [1]; [13]): 25 µg/mL; MIC (EMRSA-17 [2]; [13]): 25 µg/mL
11 | Cc1cc(NS(=O)(=O)c2ccc(N)cc2)no1 [Sulfamethoxazole] | Synergistic | – | 0.324 | 0.32 | – | Synergistic | 8 | 2050 | 2080 | –
12 | CC[C@H]1OC(=O)[C@H](C)[C@@H](O[C@H]2C[C@@](C)(OC)[C@@H](O)[C@H](C)O2)[C@H](C)[C@@H](O[C@@H]2O[C@H](C)C[C@H](N(C)C)[C@H]2O)[C@](C)(O)C[C@@H](C)C(=O)[C@H](C)[C@@H](O)[C@]1(C)O [Erythromycin] | Synergistic | 8 | 0.324 | 0.32 | – | Synergistic | 8 | 2050 | 1020 | –
